Experimental data: patent US8937091B2 (Japan Science and Technology Agency, priority 2009, dated 2015)

Experiments:
[1] = tested on: SOCE (store operated calcium entry) in CHO cells; experiment: Assay of SOCE (store operated calcium entry)-inhibiting action; assay type: cell-based, Chinese hamster; conditions: CHO cells, thapsigargin; for inhibition at 10 µM / inhibition at 30 µM / inhibition at 100 µM: Cricetulus griseus, CHO, read-out: SOCE level (percentage of inhibition)
How it was run: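 CHO cells in calcium-free BSS received compound, then 1 μM thapsigargin 2 min later to deplete stores; after 9 min, 2 mM calcium chloride (final) added. Percent inhibition of the rise in intracellular calcium determined at various compound concentrations.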

[2] = tested on: IICR (IP3 induced calcium release) in CHO cells; experiment: Assay of IICR (IP3 induced calcium release)-inhibiting action; assay type: cell-based, Chinese hamster; conditions: CHO cells, 10 μM ATP; for inhibition at 10 µM / inhibition at 30 µM / inhibition at 100 µM: Cricetulus griseus, CHO, read-out: IICR level (percentage of inhibition)
How it was run: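 Inhibition (%) of the intracellular calcium increase triggered by 10 μM ATP, measured in CHO cells in BSS with calcium. Compound given 1 min after the buffer exchange and 2 min before ATP; values reported per compound concentration.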

Structure (SMILES)	inhibition at 10 µM ([1]; test compound 10 μmol)	inhibition at 30 µM ([1]; test compound 30 μmol)	inhibition at 100 µM ([1]; test compound 100 μmol)	inhibition at 10 µM ([2]; test compound 10 μmol)	inhibition at 30 µM ([2]; test compound 30 μmol)	inhibition at 100 µM ([2]; test compound 100 μmol)	SOCE level (percentage of inhibition) ([1]; test compound 10 μmol)	SOCE level (percentage of inhibition) ([1]; test compound 30 μmol)	SOCE level (percentage of inhibition) ([1]; test compound 100 μmol)	IICR level (percentage of inhibition) ([2]; test compound 10 μmol)	IICR level (percentage of inhibition) ([2]; test compound 30 μmol)	IICR level (percentage of inhibition) ([2]; test compound 100 μmol)
CC(CN(C)CCO)C(=O)c1ccc(F)cc1 (stereo not drawn) [Example 163, 2-(N-hydroxyethylmethyl)amino-1-methylethyl-4-fluorophenylketone]	0%	0%	20%	0%	0%	0%						
Cn1cccc1C(=O)CCN(CCO)Cc1ccccc1 [Example 164, 2-(N-benzyl-2-hydroxyethyl)aminoethyl-2-(N-methylpyrrolyl)ketone]	0%	0%	10%	0%	0%	40%						
Cn1cccc1C(=O)CCN(Cc1ccccc1)C(C)(C)C [Example 165, 2-(N-benzyl-t-butyl)aminoethyl-2-(N-methylpyrrolyl)ketone]	0%	0%	0%	0%	0%	0%						
CC(C)N(CCO)CCC(=O)c1ccc(F)cc1 [Example 166, 2-(N-hydroxyethylisopropyl)aminoethyl-4-fluorophenylketone]	0%	0%	20%	0%	0%	0%						
CN(CCO)CCC(=O)c1cccn1C [Example 167, 2-(N-methyl-2-hydroxyethyl)aminoethyl-2-(N-methylpyrrolyl)ketone]	0%	0%	0%	0%	0%	0%						
CC(C)N(CC(=O)c1ccccc1)Cc1ccccc1 [Example 168, 2-(N-isopropylbenzyl)aminomethyl-4-phenylketone]	0%	0%	50%	0%	0%	70%						
CC(C)N(CCO)CCC(=O)c1cccn1C [Example 169, 2-(N-isopropyl-2-hydroxyethyl)aminoethyl-2-(N-methylpyrrolyl)ketone]	0%	0%	0%	0%	0%	0%						
CC(C)N(CCO)CCC(=O)c1ccc[nH]1 [Example 170, 2-(N-isopropyl-2-hydroxyethyl)aminoethyl-2-pyrrolylketone]	0%	0%	0%	0%	0%	0%						
C=CC(=O)c1ccco1 [Example 171, 2-furyl vinylketone]	0%	10%	30%	0%	0%	0%						
CC(C)N(CCO)CCC(=O)c1ccco1 [Example 172, 2-(N-isopropylhydroxyethyl)aminoethyl-2-furylketone]				0%			0%	0%	0%			
O=C(CCN(CCO)Cc1ccccc1)c1ccc[nH]1 [Example 173, 2-(N-benzylhydroxyethyl)aminoethyl-2-pyrrolylketone]	0%	0%	0%	0%	50%	80%						
O=C(CCN(CCO)CCO)c1ccco1 [Example 174, 2-(N-bis(hydroxyethyl))aminoethyl-2-furylketone]							0%	0%	0%	0%	0%	0%
CN(CCC(=O)c1ccc[nH]1)Cc1ccccc1 [Example 175, 2-(N-benzylmethyl)aminoethyl-2-pyrrolylketone]	0%	0%	0%	10%	10%	20%						
O=C(CCNCCc1ncc[nH]1)c1cccnc1 [Example 176]	0%	0%	0%	10%	30%	50%						
O=C(CCN(CCO)Cc1ccccc1)c1cccnc1 [Example 177, 2-(N-2-hydroxyethylbenzyl)aminoethyl-3-pyridylketone]	0%	0%	0%	0%	0%	50%						
CC(C)N(CCO)CCCC(=O)c1ccccc1 [Example 178, 3-(N-isopropylhydroxyethyl)aminopropylphenylketone]	0%	0%								0%	0%	0%
CC(C)N(CCCC(=O)c1ccccc1)Cc1ccccc1 [Example 179, 3-(N-isopropylbenzyl)aminopropylphenylketone]	0%	0%	0%	0%	0%	0%						
CCCCN(CCO)CCC(=O)c1cccnc1 [Example 180, 2-(N-2-hydroxyethylbutyl)aminoethyl-3-pyridylketone]	0%	0%	0%	0%	0%	50%						
CC(CN(CCO)C(C)C)C(=O)c1ccccc1F (stereo not drawn) [Example 181, 1-methyl-2-(N-hydroxyethylisopropyl)aminoethyl-2-fluorophenylketone]	20%	40%	80%	0%	10%	20%						
CC(CN(Cc1ccccc1)C(C)C)C(=O)c1ccccc1F (stereo not drawn) [Example 182, 1-methyl-2-(N-benzylisopropyl)aminoethyl-2-fluorophenylketone]	10%	50%	80%	0%	0%	50%						
CC(C)N(CCC(=O)c1cccs1)Cc1ccccc1 [Example 183, 2-(N-isopropylbenzyl)aminoethyl-2-thiophenylketone]	0%	0%	20%	0%	0%	50%						
O=C(CCN(CCO)Cc1ccccc1)c1ccsc1 [Example 184, 2-(N-2-hydroxyethylbenzyl)aminoethyl-3-thiophenylketone]	0%	0%	0%	30%	50%	60%						
O=C(CCN(c1ccccc1)c1ccccc1)c1ccccn1 [Example 185, 2-(N,N-diphenyl)aminoethyl-2-pyridylketone]	0%	10%	20%	0%	10%	20%						
CCc1nccnc1C(=O)CCN(Cc1ccccc1)C(C)C [Example 186, 2-(N-isopropylbenzyl)aminoethyl-2-(3-ethyl)-pyrazylketone]	0%	0%	10%	70%	90%	100%						
CCc1nccnc1C(=O)CCN(Cc1ccccc1)C(C)(C)C [Example 188, 2-(N-t-butylbenzyl)aminoethyl-2-(3-ethyl)-pyrazylketone]	0%	0%	20%	50%	90%	100%						
O=C(CCNC12CC3CC(CC(C3)C1)C2)c1ccccc1 [Example 189, 2-N-adamantaneaminoethylphenylketone]	0%	10%	10%	0%	0%	0%						
Cc1ccc(C(=O)CCNC23CC4CC(CC(C4)C2)C3)o1 [Example 190, 2-N-adamantane-aminoethyl-2-methylfurylketone]	0%	10%	50%	0%	10%	50%						
